This note sets out measurements from patent US8008299B2, “Urotensin II receptor antagonists” (Janssen Pharmaceutica, N.V., priority 2007, dated 2011).

The structures appear in SMILES notation.

Assay [1] addresses T1, UT receptors in HSMM (Human Skeletal Muscle Myoblasts) (Homo sapiens, UniProt Q9UKP6).
T1 sequence (Q9UKP6 1-389): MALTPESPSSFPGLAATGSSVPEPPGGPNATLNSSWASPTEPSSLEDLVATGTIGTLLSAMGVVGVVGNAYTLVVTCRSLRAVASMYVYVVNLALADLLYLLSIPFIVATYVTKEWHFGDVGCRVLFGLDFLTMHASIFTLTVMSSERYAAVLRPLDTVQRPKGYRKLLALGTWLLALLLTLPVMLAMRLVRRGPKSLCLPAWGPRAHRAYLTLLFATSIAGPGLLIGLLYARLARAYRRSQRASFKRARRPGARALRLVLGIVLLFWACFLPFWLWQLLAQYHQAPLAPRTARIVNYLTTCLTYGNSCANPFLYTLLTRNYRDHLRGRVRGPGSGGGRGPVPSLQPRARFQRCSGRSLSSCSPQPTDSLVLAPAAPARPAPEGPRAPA
Description: Human Radioligand Binding Assay ((^125I)-U-II binding to intact HSMM).

The target of assay [2] is T2, Human UII (U-II receptor) in 6D9 human rhabdomyosarcoma cells (Homo sapiens, UniProt Q9UKP6).
T2 construct: 6D9: isolated by dilution subcloning of RMS13 cells, ATCC® Number: CRL-2061; host or cells: 6D9 human rhabdomyosarcoma cells (subclone of RMS13)
T2 sequence (Q9UKP6 1-389): T1 sequence (Q9UKP6 1-389)
Description: Human UII Calcium Mobilization Assay. It is filed as cell-based. The following applies: 6D9 human rhabdomyosarcoma cells, FLIPR TETRA, average; read-out: Human UII Ca+ Mobilization Average IC50. As to the method: 25 μL of dye solution was added to the wells such that the final liquid volume before agonist/antagonist treatment was 50 μL for all assays. The cell plates were incubated at 37° C. for 45 minutes and the fluorescence intensity was measured on a Fluorometric Imaging Plate Reader (FLIPR^TETRA, Molecular Devices, Sunnyvale, Calif.).
Antagonist and agonist U-II were added at room temperature on the FLIPR^TETRA, and the fluorescence intensity before and after addition was measured over a period of 4 minutes. The dye incubation time and temperature as well as instrument setting was adjusted so the fluorescence intensity could be compared between plates on the same day. EC50 and IC50 were analyzed using GraphPad Prism 4 software (GraphPad Software Inc., San Diego, Calif.).
For assays, U-II agonist, U-II antagonist and urantide were diluted with HBSS/HEPES containing 0.01% FBS.
Test compounds were dissolved in DMSO at 10 mM concentration. The serial dilutions were carried out in HBSS/HEPES. The highest final DMSO concentration was at 0.1%.
(In general: A change in cytosolic calcium serves as a functional read-out for many receptors and channels.)

Assay [3] has as its target T3, rat GPR14 (U-II receptor) (Rattus norvegicus, UniProt P49684).
T3 construct: expressed in transfected cells
T3 sequence (P49684 1-386): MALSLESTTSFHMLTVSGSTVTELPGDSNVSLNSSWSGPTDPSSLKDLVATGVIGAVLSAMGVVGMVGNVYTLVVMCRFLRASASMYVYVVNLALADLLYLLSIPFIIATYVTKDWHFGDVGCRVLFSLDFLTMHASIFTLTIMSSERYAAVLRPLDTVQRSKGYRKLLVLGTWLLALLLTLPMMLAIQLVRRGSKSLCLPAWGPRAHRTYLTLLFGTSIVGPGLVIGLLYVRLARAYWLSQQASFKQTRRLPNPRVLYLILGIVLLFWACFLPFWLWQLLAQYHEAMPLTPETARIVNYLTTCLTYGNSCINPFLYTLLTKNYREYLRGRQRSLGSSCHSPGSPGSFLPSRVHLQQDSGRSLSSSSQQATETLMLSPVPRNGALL
The experiment in a line: Rat UII Calcium Mobilization FLIPR Assay. The following applies: CHO cells transfected with rat GPR14; antagonist activity after 5 min incubation vs agonist (Ac)-CFWK(2-NaI)C-NH2 at 1 nM. The class given is cell-based. The text has this: To derive these cells, the complete coding sequence of rat U-II (Genbank Accession No. U32673) was amplified by nested PCR from rat heart marathon-Ready cDNA. […] The PCR products were cloned into pcDNA3 (Invitrogen) digested with EcoR I and Xba I. Clones containing rat U-II receptor were verified by complete sequencing of the U-II receptor insert to ensure a lack of PCR-introduced errors. The constructed vector was transfected into CHO cells by using lipofectamine (GIBCO BRL). CHO cells with high expression of rat U-II receptor were selected and established as stable cell lines by using G418. CHO cells were seeded at 25,000 cells per well into 96-well, black-wall, clear-bottom microtiter plates 24 h before assay. Cells in culture media (DMEM/F12 containing 15 mM HEPES, L-glutamine, pyridoxine hydrochloride; 10% fetal bovine serum; 1 mg/mL G418 sulfate; antibiotic-antimycotic; pH 7.4) were loaded with proprietary dye, from the FLIPR Calcium Assay Kit (Molecular Devices), prepared in assay buffer (Hanks Balanced Salts Solution, 20 mM HEPES, 0.1% BSA, 2.5 mM probenecid, pH 7.4), and incubated for 1 h at 37° C. Calcium mobilization determinations were performed at room temperature (23° C.).

`CCN1CCN(c2cccc3c2CN([C@H](CCCNc2ncccn2)c2ccc(OC)c(OC)c2)C3=O)CC1` [Cpd 48, 2-[(1R)-1-(3,4-dimethoxy-phenyl)-4-(pyrimidin-2-ylamino)-butyl]-4-(4-ethyl-piperazin-1-yl)-2,3-dihydro-isoindol-1-one] came in with a Ki in assay [1] of 48 nM. Also, the IC50 in assay [2] was determined as 496 nM; in assay [3], 61 nM.
With `COc1ccc([C@@H](CCCOc2ccccc2)N2Cc3c(cccc3N3CCN(Cc4ccccc4)CC3)C2=O)cc1OC` [Cpd 34, 4-(4-benzyl-piperazin-1-yl)-2-[(1R)-1-(3,4-dimethoxy-phenyl)-4-phenoxy-butyl]-2,3-dihydro-isoindol-1-one], in assay [1], the inhibition constant (Ki) came out at 32 nM. For the same molecule, the IC50 turned out to be 310 nM in assay [2] and 105 nM in assay [3].
Molecule `COc1ccc([C@@H](CCCN(C)c2ccccc2)N2Cc3c(cccc3N3CCNCC3)C2=O)cc1OC` [Cpd 33, 2-[(1R)-1-(3,4-dimethoxy-phenyl)-4-(methyl-phenyl-amino)-butyl]-4-piperazin-1-yl-2,3-dihydro-isoindol-1-one] returned a Ki in assay [1] of 520 nM. In addition, the IC50 came to 4680 nM in assay [2] and 307 nM in assay [3].
Regarding `CCN1CCN(c2cccc3c2CN([C@H](CCCNC(=O)c2ccco2)c2ccc(OC)c(OC)c2)C3=O)CC1` [Cpd 78, furan-2-carboxylic acid {(4R)-4-(3,4-dimethoxy-phenyl)-4-[4-(4-ethyl-piperazin-1-yl)-1-oxo-1,3-dihydro-isoindol-2-yl]-butyl}-amide], the affinity in assay [1], expressed as Ki, was 20 nM. Also, the figures for the IC50 in assay [2] and in assay [3] were 394 nM and 15 nM, respectively.
In turn, `CCN1CCC(C(c2ccc(OC)c(OC)c2)N2Cc3c(cccc3N3CCN(CC)CC3)C2=O)CC1` (stereo not drawn) [Cpd 42, 2-[(3,4-dimethoxy-phenyl)-(1-ethyl-piperidin-4-yl)-methyl]-4-(4-ethyl-piperazin-1-yl)-2,3-dihydro-isoindol-1-one] registered a Ki in assay [1] of over 300 nM. Also, the values for the IC50 in assay [2] and in assay [3] were over 10000 nM and 3600 nM, respectively.
The molecule `CCN1CCN(c2cccc3c2CN([C@H](CCCN2CCc4ccccc4C2)c2ccc(OC)c(OC)c2)C3=O)CC1` [Cpd 101, 2-[(1R)-4-(3,4-dihydro-1H-isoquinolin-2-yl)-1-(3,4-dimethoxy-phenyl)-butyl]-4-(4-ethyl-piperazin-1-yl)-2,3-dihydro-isoindol-1-one] gave a Ki in assay [1] of 21 nM. In addition, the IC50 stood at 69 nM in assay [2] and 5 nM in assay [3].
`COc1ccc([C@@H](CCCOc2ccccc2)N2Cc3c(cccc3N3CCN(C4CC4)CC3)C2=O)cc1OC` [Cpd 28, 4-(4-cyclopropyl-piperazin-1-yl)-2-[(1R)-1-(3,4-dimethoxy-phenyl)-4-phenoxy-butyl]-2,3-dihydro-isoindol-1-one] yielded an inhibitory constant (Ki) in assay [1] of 154 nM. The figures for the IC50 in assay [2] and in assay [3] were 1210 nM and 25 nM, respectively.
In turn, `CCN1CCN(c2cccc3c2CN([C@H](CCCNc2ccccn2)c2ccc(OC)c(OC)c2)C3=O)CC1` [Cpd 92, 2-[(1R)-1-(3,4-dimethoxy-phenyl)-4-(pyridin-2-ylamino)-butyl]-4-(4-ethyl-piperazin-1-yl)-2,3-dihydro-isoindol-1-one] had a Ki in assay [1] of 60 nM. Moreover, the IC50 in assay [2] is 911 nM; in assay [3], 74 nM.
Regarding `CCN1CCN(c2cccc3c2CN([C@H](CCCN(C)S(=O)(=O)c2cccs2)c2ccc(OC)c(OC)c2)C3=O)CC1` [Cpd 62, thiophene-2-sulfonic acid {(4R)-4-(3,4-dimethoxy-phenyl)-4-[4-(4-ethyl-piperazin-1-yl)-1-oxo-1,3-dihydro-isoindol-2-yl]-butyl}-methyl-amide], the IC50 in assay [2] is 88 nM; in assay [3], 7 nM.
For `CCN1CCN(c2cccc3c2CN([C@H](CCCOCc2cccc(F)c2)c2ccc(OC)c(OC)c2)C3=O)CC1` [Cpd 52, 2-[(1R)-1-(3,4-dimethoxy-phenyl)-4-(3-fluoro-benzyloxy)-butyl]-4-(4-ethyl-piperazin-1-yl)-2,3-dihydro-isoindol-1-one], the IC50 was over 10000 nM in assay [2] and 3130 nM in assay [3].
For `CCN1CCN(c2cccc3c2CN([C@H](CCCOCc2cccc(C)c2)c2ccc(OC)c(OC)c2)C3=O)CC1` [Cpd 55, 2-[(1R)-1-(3,4-dimethoxy-phenyl)-4-(3-methyl-benzyloxy)-butyl]-4-(4-ethyl-piperazin-1-yl)-2,3-dihydro-isoindol-1-one], in that order: over 10000 nM and 2150 nM.
Molecule `CCN1CCN(c2cccc3c2CN([C@H](CCCNc2ccc4ccccc4n2)c2ccc(OC)c(OC)c2)C3=O)CC1` [Cpd 89, 2-[(1R)-1-(3,4-dimethoxy-phenyl)-4-(quinolin-2-ylamino)-butyl]-4-(4-ethyl-piperazin-1-yl)-2,3-dihydro-isoindol-1-one] registered a Ki in assay [1] of over 300 nM. Also, the IC50 in assay [3] is 260 nM.
As for `COc1ccc([C@@H](CCCSc2nnnn2C)N2Cc3c(cccc3N3CCNCC3)C2=O)cc1OC` [Cpd 24, 2-[(1R)-1-(3,4-dimethoxy-phenyl)-4-(1-methyl-1H-tetrazol-5-ylsulfanyl)-butyl]-4-piperazin-1-yl-2,3-dihydro-isoindol-1-one], the IC50 in assay [2] was 1550 nM; in assay [3], 165 nM.
In the case of `CCN1CCN(c2cccc3c2CN([C@H](CCc2ccc4c(n2)NCCC4)c2ccc(OC)c(OC)c2)C3=O)CC1` [Cpd 86, 2-[(1R)-1-(3,4-dimethoxy-phenyl)-3-(5,6,7,8-tetrahydro-[1,8]naphthyridin-2-yl)-propyl]-4-(4-ethyl-piperazin-1-yl)-2,3-dihydro-isoindol-1-one], the Ki in assay [1] is 386 nM. For the same molecule, in assay [3], the IC50 was under 1000 nM.
Turning to `COc1ccc([C@@H](CCCN(C)S(=O)(=O)c2cccs2)N2Cc3c(cccc3N3CCN(C)CC3)C2=O)cc1OC` [Cpd 26, thiophene-2-sulfonic acid {(4R)-4-(3,4-dimethoxy-phenyl)-4-[4-(4-methyl-piperazin-1-yl)-1-oxo-1,3-dihydro-isoindol-2-yl]-butyl}-methyl-amide], the IC50 is 337 nM in assay [2] and 16 nM in assay [3].
`CCN1CCN(c2cccc3c2CN([C@H](CCCc2ccccc2)c2ccc(OC)c(OC)c2)C3=O)CC1` [Cpd 87, 2-[(1R)-1-(3,4-dimethoxy-phenyl)-4-phenyl-butyl]-4-(4-ethyl-piperazin-1-yl)-2,3-dihydro-isoindol-1-one] registered a Ki in assay [1] of 37 nM. In addition, in assay [3], the IC50 was 6 nM.
The molecule `CCN1CCN(c2cccc3c2CN([C@H](CCCN(Cc2ccc(F)cc2)C(C)=O)c2ccc(OC)c(OC)c2)C3=O)CC1` [Cpd 88, N-{(4R)-4-(3,4-dimethoxy-phenyl)-4-[4-(4-ethyl-piperazin-1-yl)-1-oxo-1,3-dihydro-isoindol-2-yl]-butyl}-N-(4-fluoro-benzyl)-acetamide] had a Ki in assay [1] of 10 nM. Further, the IC50 in assay [3] amounted to 6 nM.

A word on the Ki: it is a dissociation constant, usually derived from enzyme kinetics or from competition with a known ligand. In general, IC50 refers to the midpoint of a concentration-inhibition curve.
